For experiment [1], the target named is SMARCA2 (Homo sapiens, UniProt P51531). In words: SMARCA2 capillary electrophoresis protein assay in RKO cells. It is filed as cell-based. Set-up: endogenous in cells; host or cells: RKO, NCI-H1568, A549, HCT116, LU99, HCC-364, HCT-15, HCC4006, SK-N-AS. The note with it: for DC50 / Dmax: mean ± SD; for Dmax: RKO. In a few lines: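 Cells (130,000–200,000) treated with compounds in DMSO at indicated concentrations; half-life and re-synthesis runs used 150,000–200,000 cells. Lysates analysed by capillary electrophoresis immunoassay (12–230 kDa Wes), SMARCA2/4 normalised to GAPDH. Curves fitted by 4-parameter logistic model where applicable.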
SMARCA2, sequence (P51531 whole entry): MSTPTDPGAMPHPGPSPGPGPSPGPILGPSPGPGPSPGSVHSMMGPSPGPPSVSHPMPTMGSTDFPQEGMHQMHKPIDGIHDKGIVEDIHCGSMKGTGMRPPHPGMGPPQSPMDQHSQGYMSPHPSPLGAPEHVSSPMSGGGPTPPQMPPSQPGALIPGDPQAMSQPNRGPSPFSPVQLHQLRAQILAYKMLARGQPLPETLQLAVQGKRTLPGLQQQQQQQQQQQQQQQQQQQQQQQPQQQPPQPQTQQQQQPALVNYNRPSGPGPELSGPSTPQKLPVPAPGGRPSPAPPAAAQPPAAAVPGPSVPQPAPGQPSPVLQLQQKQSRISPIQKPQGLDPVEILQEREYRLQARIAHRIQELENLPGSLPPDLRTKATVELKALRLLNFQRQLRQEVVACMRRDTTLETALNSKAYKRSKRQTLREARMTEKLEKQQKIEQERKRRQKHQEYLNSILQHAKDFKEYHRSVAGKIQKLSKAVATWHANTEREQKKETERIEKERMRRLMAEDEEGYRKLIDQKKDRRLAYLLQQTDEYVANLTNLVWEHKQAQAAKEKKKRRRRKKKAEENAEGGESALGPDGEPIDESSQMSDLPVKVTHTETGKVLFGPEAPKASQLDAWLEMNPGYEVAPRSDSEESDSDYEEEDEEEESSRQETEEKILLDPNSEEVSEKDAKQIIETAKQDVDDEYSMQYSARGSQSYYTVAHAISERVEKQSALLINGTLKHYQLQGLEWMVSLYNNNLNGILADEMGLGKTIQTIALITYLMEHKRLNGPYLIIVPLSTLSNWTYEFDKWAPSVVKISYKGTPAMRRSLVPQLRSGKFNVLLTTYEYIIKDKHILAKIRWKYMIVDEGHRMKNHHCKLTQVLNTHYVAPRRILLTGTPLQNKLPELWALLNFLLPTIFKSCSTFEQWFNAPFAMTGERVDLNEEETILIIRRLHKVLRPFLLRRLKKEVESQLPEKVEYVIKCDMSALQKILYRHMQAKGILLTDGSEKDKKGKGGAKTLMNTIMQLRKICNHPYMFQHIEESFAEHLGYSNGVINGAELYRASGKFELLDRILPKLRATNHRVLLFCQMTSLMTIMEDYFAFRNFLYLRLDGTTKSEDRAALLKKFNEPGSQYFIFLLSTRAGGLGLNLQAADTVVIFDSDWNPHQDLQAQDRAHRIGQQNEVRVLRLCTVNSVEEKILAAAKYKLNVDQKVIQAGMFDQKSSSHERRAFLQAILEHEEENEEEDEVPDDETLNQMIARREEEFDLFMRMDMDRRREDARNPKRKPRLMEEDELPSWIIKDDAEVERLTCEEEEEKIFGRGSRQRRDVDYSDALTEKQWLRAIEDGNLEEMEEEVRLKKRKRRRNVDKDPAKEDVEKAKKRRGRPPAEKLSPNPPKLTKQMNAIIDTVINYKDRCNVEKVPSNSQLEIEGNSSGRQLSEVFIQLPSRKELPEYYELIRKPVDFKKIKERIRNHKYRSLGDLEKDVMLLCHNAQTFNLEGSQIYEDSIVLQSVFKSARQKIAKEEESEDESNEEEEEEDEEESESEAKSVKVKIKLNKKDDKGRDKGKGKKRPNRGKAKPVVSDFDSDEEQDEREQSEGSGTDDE

In experiment [2] the target is VCB: PROTAC: SMARCA2^BD ternary complex (Homo sapiens, UniProt P40337+P51531). Kind of experiment: TR-FRET ternary complex affinity and cooperativity, SMARCA2. The class given is binding. Further details: P51531-2, residues 1373-1493 with additional N-terminal SM residues; GST (TEV site) (N); His6 (TEV site) (N, cleaved yes); made in house; host or cells: SMARCA2^BD: Escherichia coli BL21(DE3). On the technique in general: TR-FRET usually uses a lanthanide donor and a delayed reading to cut background.
VCB: PROTAC: SMARCA2^BD ternary complex, sequence (P51531 with tags, fused parts or gaps isoform P51531-2): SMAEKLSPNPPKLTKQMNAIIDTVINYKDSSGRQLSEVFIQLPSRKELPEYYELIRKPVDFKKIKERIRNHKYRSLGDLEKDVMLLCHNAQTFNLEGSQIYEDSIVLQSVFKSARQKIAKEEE
VCB: PROTAC: SMARCA2^BD ternary complex, sequence (P40337 54-213): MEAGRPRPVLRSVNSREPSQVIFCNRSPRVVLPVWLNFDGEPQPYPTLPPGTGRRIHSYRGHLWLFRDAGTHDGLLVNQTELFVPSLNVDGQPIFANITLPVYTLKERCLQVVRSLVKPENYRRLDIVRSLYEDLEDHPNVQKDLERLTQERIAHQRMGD
VCB: PROTAC: SMARCA2^BD ternary complex, sequence (Q15369 17-112 partner): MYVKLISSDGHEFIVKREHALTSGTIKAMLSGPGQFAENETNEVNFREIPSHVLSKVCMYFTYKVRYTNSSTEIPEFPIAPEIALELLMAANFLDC
VCB: PROTAC: SMARCA2^BD ternary complex, sequence (Q15370 1-104 partner): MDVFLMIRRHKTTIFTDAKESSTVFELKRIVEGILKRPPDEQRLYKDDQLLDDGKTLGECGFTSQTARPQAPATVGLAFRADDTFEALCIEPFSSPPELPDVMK

For experiment [3], the target named is T1, PBRM1BD5 (Homo sapiens, UniProt Q86U86).
T1 construct: GST (TEV site) (N); His6 (TEV site) (N, cleaved yes); made in house; host or cells: PBRM1^BD5: Escherichia coli BL21(DE3)
T1 sequence (Q86U86 645-766): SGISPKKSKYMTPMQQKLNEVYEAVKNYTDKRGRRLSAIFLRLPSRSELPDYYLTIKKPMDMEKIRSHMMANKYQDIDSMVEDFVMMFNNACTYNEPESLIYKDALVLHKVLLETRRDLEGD
In words: TR-FRET ternary complex affinity and cooperativity, PBRM1. The class given is binding. The following applies: TR-FRET competition for PBRM1BD5, without VCB; mean ± SD; read-out: TR-FRET PBRM1BD EC50.

Experiment [4] has as its target SMARCA4 (Homo sapiens, UniProt P51532). Kind of experiment: SMARCA4 capillary electrophoresis protein assay in RKO cells. It is filed as cell-based. Set-up: endogenous in cells; host or cells: RKO, HCT116, LU99, HCC-364, HCT-15, HCC4006, SK-N-AS. The following applies: mean ± SD. Summed up:
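Cells were treated with compound for 4 or 18 h. Half-life was followed with 50 µg/ml cycloheximide for 1–24 h, and re-synthesis with 100 nM compound 6 for 4 h, then VHL binder at 25 or 50 µM for 3 or 24 h. SMARCA2/4 was quantified by Wes capillary immunoassay, normalised to GAPDH, with 4-parameter logistic fits.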

For experiment [5], the target named is VCB: PROTAC: SMARCA4^BD ternary complex (Homo sapiens, UniProt P40337+P51532). Kind of experiment: TR-FRET ternary complex affinity and cooperativity, SMARCA4. It is filed as binding. Further details: P51532, residues 1448–1569 with additional N-terminal SM residues; GST (TEV site) (N); His6 (TEV site) (N, cleaved yes); made in house; host or cells: SMARCA4^BD: Escherichia coli BL21(DE3).
VCB: PROTAC: SMARCA4^BD ternary complex, sequence (P51532 1448-1569): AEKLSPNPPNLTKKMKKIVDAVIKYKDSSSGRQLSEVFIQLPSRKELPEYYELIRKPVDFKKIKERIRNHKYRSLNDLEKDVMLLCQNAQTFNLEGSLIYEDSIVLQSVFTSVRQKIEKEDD
VCB: PROTAC: SMARCA4^BD ternary complex, sequence (P40337 54-213): as the sequence (P40337 54-213) above
VCB: PROTAC: SMARCA4^BD ternary complex, sequence (Q15369 17-112 partner): as the sequence (Q15369 17-112 partner) above
VCB: PROTAC: SMARCA4^BD ternary complex, sequence (Q15370 1-104 partner): as the sequence (Q15370 1-104 partner) above

Where [6] appears, read: PROTAC + VCB, individual replicates, read-out: Ternary SMARCA2 BD EC50 (PROTAC + VCB).
Setting [7] is: TR-FRET competition for SMARCA2BD, + VCB, mean ± SD, read-out: TR-FRET Ternary SMARCA2BD EC50 (PROTAC + VCB).
Setting [8] is: PROTAC + VCB, individual replicates, read-out: Ternary SMARCA4 BD EC50 (PROTAC + VCB).
Setting [9] is: TR-FRET competition for SMARCA4BD, + VCB, mean ± SD, read-out: TR-FRET Ternary SMARCA4BD EC50 (PROTAC + VCB).

“And” between values parts separate entries of the source, which are not always exact repeats. Identical values can stand only once. Like-named read-outs stand apart in the source and are kept apart here. A value given as a limit tells only on which side of the number the result lay.

SMARCA4, sequence (P51532 whole entry): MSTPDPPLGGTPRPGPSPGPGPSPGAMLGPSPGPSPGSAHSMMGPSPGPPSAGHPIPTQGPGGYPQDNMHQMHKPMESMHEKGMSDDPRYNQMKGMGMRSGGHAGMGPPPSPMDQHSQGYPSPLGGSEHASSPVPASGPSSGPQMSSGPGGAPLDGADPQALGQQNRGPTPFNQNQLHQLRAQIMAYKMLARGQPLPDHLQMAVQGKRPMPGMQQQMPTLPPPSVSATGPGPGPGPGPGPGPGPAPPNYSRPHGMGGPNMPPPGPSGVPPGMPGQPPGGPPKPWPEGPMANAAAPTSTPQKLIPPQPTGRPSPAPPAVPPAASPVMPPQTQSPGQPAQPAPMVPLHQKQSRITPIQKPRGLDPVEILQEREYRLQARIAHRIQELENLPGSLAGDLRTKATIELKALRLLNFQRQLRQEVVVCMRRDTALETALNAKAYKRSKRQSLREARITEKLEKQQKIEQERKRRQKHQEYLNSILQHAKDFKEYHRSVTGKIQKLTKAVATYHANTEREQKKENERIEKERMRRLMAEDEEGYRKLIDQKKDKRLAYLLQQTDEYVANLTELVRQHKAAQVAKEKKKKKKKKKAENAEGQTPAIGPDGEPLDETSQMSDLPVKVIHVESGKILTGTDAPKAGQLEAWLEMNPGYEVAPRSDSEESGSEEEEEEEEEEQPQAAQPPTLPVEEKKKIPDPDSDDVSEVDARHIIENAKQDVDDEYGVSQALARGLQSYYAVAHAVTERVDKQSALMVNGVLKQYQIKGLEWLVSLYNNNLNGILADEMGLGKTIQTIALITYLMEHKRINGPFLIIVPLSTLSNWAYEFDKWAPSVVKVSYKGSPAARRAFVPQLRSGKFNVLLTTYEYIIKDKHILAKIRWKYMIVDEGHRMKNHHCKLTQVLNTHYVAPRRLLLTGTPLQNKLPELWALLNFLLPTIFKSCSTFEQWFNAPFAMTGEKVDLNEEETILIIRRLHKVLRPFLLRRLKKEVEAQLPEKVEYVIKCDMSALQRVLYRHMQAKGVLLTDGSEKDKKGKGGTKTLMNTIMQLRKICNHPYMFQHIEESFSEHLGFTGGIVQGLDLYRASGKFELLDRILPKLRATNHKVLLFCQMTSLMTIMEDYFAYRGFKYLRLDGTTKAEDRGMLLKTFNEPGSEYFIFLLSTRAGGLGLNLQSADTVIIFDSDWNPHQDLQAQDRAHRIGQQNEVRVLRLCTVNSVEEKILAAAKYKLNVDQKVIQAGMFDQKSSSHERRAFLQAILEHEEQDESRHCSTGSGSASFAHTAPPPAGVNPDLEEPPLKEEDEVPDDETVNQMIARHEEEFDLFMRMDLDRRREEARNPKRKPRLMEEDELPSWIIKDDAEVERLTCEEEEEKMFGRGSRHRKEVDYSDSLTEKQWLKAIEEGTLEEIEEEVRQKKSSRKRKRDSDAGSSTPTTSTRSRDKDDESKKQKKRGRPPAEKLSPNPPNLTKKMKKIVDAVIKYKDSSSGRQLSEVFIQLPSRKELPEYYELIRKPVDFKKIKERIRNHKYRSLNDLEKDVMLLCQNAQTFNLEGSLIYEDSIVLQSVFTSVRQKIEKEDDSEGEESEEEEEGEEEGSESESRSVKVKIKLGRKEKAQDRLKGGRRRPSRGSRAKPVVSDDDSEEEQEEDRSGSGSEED

Turning to `Cc1ncsc1-c1ccc([C@H](COC(C)CN2CCC(c3ccc4c(c3)n(C3CCCC3)c3nc(=O)c5c(Br)cccc5n43)CC2)NC(=O)[C@@H]2C[C@@H](O)CN2C(=O)[C@@H](NC(=O)C2(F)CC2)C(C)(C)C)cc1` (some centres unmarked) [compound 9], the DC50 was 12 ± 4 nM in experiment [1] (RKO (4 h)), 5 ± 1 nM in experiment [1] (RKO (18 h)), more than 25000 nM in experiment [4] (RKO (4 h)) and 1780 nM in experiment [4] (RKO (18 h)). Moreover, the Dmax in experiment [1] (RKO (4 h)) amounted to 72 ± 7%; in experiment [1] (RKO (18 h)) it was 76 ± 10%; in experiment [4] (RKO, RKO (18 h)), 88 ± 16%. For the same molecule, in experiment [1] (Supplementary Data 2), the “selectivity for SMARCA2 over SMARCA4 degradation” value is “remarkable selectivity”. The EC50 is 20.6 nM and 18 nM and 20.2 nM and 22.8 nM and 25.6 nM and 25.2 nM and 34 nM and 21.7 nM and 14.5 nM and 19.9 nM and 18.7 nM in experiment [2] (setting [6]); 21 ± 5 nM in experiment [2] (setting [7]); 34 ± 4 nM in experiment [3]; 88.4 nM and 113 nM and 133 nM and 114 nM and 84.3 nM in experiment [5] (setting [8]); 105 ± 20 nM in experiment [5] (setting [9]).
Regarding `Cc1ncsc1-c1ccc(CNC(=O)[C@@H]2C[C@H](O)CN2C(=O)[C@@H](NC(=O)C2(F)CC2)C(C)(C)C)c(OCCN2CCC(c3ccc4c(c3)n(C3CCCC3)c3nc(=O)c5c(Br)cccc5n43)CC2)c1` [compound 19], the DC50 in experiment [1] (RKO (4 h)), in experiment [1] (RKO (18 h)), in experiment [4] (RKO (4 h)) and in experiment [4] (RKO (18 h)) was more than 25000 nM each time. For the same molecule, the 50% effective concentration (EC50) in experiment [2] (setting [6]) is 69.1 nM and 75.9 nM and 70.4 nM; in experiment [2] (setting [7]) it was 72 ± 3 nM; in experiment [3] it was 38 ± 2 nM; in experiment [5] (setting [8]), 201 nM and 160 nM and 159 nM; in experiment [5] (setting [9]) it was 173 ± 19 nM.
Regarding `CN1CCN(c2nc(=O)c3ccccc3o2)CC1` [compound 14], the DC50 in experiment [1] (RKO (4 h)), in experiment [1] (RKO (18 h)), in experiment [4] (RKO (4 h)) and in experiment [4] (RKO (18 h)) was more than 25000 nM in each case. Besides, the EC50 in experiment [2] (setting [6]), in experiment [3] and in experiment [5] (setting [8]) was more than 10000 nM throughout.

A word on the EC50: it is the concentration at which the effect is half-maximal.

The values above are taken from article PMC9551036, “A selective and orally bioavailable VHL-recruiting PROTAC achieves SMARCA2 degradation in vivo” (Nature Communications, 2022).
